pIC50: −log10 of the molar value. Read-outs that look alike come from different tables or passages of the source.
How the values were obtained:
[1] = biological target: T1, purified PTP domain of SHP2 (Homo sapiens (Human), UniProt Q06124); experiment: PTPase assay with DiFMUP, SHP2; type: biochemical; conditions: for pIC50: 1 nM enzyme, 20 μM DiFMUP, 37° C., 20 min; for fold difference: SHP2 IC50 relative to CNBCA
[2] = biological target: T2, purified PTP domain of SHP1 (Homo sapiens (Human), UniProt P29350); experiment: PTPase assay with DiFMUP, SHP1; type: biochemical
[3] = biological target: purified PTP domain of PTP1B (Homo sapiens (Human), UniProt P18031); experiment: PTPase assay with DiFMUP, PTP1B; type: biochemical
SHP2 = SHP2 (Homo sapiens (Human), UniProt Q06124); experiment: Enzyme kinetic studies with DiFMUP (Michaelis-Menten, Lineweaver-Burk); type: biochemical; conditions: for Km: 36.05 in its absence
PTP1B = PTP1B (Homo sapiens (Human), UniProt P18031); experiment: CETSA with CNBCA, nontarget PTP1B in breast cancer cell lysates; type: binding; conditions: 100 μM CNBCA
FL-SHP2 = FL-SHP2 (Homo sapiens (Human), UniProt Q06124); experiment: PTPase assay on FLAG-tagged FL-SHP2 immunoprecipitated from MDA-MB468 cells; type: biochemical; conditions: 20 μM DiFMUP
[4] = test system: Akt and ERK1/2 activation in BT474 and MDA-MB468 cells; experiment: Immunoblotting for basal pERK1/2 and pAkt, CNBCA; type: cell-based; conditions: 48 h
[5] = test system: BT474 and MDA-MB468 cells; experiment: Cell growth in 2D culture, CNBCA; type: cell-based; conditions: 500 nM, 72 h
[6] = test system: BT474 and MDA-MB468 cells; experiment: Colony formation in soft agar, CNBCA; type: cell-based; conditions: 500 nM, 10 days
[7] = test system: BT474 and MDA-MB468 cells; experiment: Mammosphere formation in suspension culture, CNBCA; type: cell-based; conditions: 500 nM, 10 days
[8] = biological target: T1, purified PTP domain of SHP2; conditions: previously reported value; read-out: IC50 SHP2 PTPase activity, parent compound; cited from earlier work
[9] = biological target: T2, purified PTP domain of SHP1; conditions: previously reported; cited from earlier work

Chain of PTP1B (P18031 whole entry): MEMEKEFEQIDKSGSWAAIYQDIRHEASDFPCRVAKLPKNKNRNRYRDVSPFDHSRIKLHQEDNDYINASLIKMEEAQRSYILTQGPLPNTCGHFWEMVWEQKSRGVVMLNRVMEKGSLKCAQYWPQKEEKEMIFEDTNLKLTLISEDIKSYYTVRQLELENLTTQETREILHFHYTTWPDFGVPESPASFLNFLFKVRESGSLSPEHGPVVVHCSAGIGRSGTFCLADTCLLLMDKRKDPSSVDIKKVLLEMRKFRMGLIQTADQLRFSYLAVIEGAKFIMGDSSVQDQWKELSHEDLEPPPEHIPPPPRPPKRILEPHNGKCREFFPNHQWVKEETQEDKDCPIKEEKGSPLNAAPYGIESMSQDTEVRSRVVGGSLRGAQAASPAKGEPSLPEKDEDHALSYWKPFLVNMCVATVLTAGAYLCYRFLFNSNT
T2 sequence (P29350 244-515): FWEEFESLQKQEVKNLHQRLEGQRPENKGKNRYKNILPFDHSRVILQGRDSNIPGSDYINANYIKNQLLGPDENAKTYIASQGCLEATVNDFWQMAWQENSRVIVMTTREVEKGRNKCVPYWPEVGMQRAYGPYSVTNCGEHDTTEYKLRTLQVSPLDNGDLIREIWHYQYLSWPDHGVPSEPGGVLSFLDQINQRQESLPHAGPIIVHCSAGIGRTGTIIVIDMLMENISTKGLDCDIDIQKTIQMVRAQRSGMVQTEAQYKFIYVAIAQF
Chain of purified PTP domain of PTP1B (P18031 3-277): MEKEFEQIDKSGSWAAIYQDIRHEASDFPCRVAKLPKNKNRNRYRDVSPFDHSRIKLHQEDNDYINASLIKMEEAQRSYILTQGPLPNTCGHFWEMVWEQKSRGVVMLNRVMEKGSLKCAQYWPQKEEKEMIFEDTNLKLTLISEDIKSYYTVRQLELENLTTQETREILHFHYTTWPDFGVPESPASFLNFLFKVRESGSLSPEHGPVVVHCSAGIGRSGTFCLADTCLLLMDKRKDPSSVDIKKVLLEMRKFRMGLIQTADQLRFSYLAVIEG

Molecule `CCCCCCCCCOc1ccc(-c2ccc(CC(=O)O)cc2)cc1CCCC(=O)O` [CNBBA, 4-(4′-(Carboxymethyl)-4-(nonyloxy)-[1,1′-biphenyl]-3-yl) Butanoic Acid] has a pIC50 [1] of 5.29 and a fold difference [1] of 5.8.
With `CCCCCCCCCOc1ccc(-c2ccc(C(=O)O)cc2)cc1CCCC(=O)O` [CNBCA, 3′-(3-Carboxypropyl)-4′-(nonyloxy)-[1,1′-biphenyl]-4-carboxylic Acid] the “better SHP2 IC50 than CNBBA” value [1] was 5.8 fold, the “better SHP2 IC50 than the parent compound CNBDA” value [1] was 5.7 fold and the pIC50 [1] was 6.06. The “Selectivity ratio, SHP2” value ([1]; SHP2 IC50 as reference) was 1.0, the fold difference [1] was 1.0 and the pIC50 ([2]; 35 μM DiFMUP) was 4.46. For the same molecule, the “more selective for SHP2 than for SHP1” value ([2]; from IC50 values) was 39.77 fold, the pIC50 ([3]; 10 μM DiFMUP) was 4.60 and the “Selectivity ratio, PTP1B” value ([3]; PTP1B IC50 over SHP2 IC50) was 28.73. For the same molecule, the mechanism of inhibition (SHP2) was “competitive inhibitor”, the Km (SHP2; in the presence of 1.0 μM CNBCA) was 125 µM and the Km (SHP2; in the presence of 2.0 μM CNBCA) was 291 µM. For the same molecule, the “nontarget PTP1B remaining in solution, band density” value (from here on “nontarget PTP1B remaining”) (PTP1B; 49° C.) was “approximately 50%”, the “nontarget PTP1B remaining” value (PTP1B; 55° C.) was 25% and the “nontarget PTP1B remaining” value (PTP1B; 58° C.) was “less than 10%”. The pIC50 (FL-SHP2) was 6.21, the “basal pERK1/2 and pAkt levels” value ([4]; 0.250 to 2.0 μM) was “downregulation of basal pERK1/2 and pAkt levels by CNBCA treatment in a concentration dependent manner” and the pIC50 ([4]; BT474 and MDA-MB468 cells, band density, read-out: approximate IC50, SHP2 mediated Akt and ERK1/2 activation) was ~6.00. For the same molecule, the “cell growth in 2D culture” value [5] was “still half-confluent”, the “colony formation in soft agar” value [6] was “fewer and smaller colonies” and the mammosphere formation [7] was “fewer and smaller mammospheres”.
For `CCCCCCCCCOc1c(CCCC(=O)O)cc(-c2ccc(C(=O)O)cc2)cc1CCCC(=O)O` [CNBDA], the fold difference [1] is given as 5.7, the pIC50 [8] is given as 5.30 and the “selective to SHP2 than to SHP1, parent compound” value [9] is given as “approximately 25 fold”.
